We go through 13 compounds from publication PMC6054517, “Design and synthesis of novel oridonin analogues as potent anticancer agents” (Journal of Enzyme Inhibition and Medicinal Chemistry, 2018).

What all share (type): cell-based, human
One experiment concerns AGS. Put plainly: MTT antiproliferative assay, AGS cells. Particulars: Homo sapiens, AGS, 48 h, MTT, means ± SD, n = 3. The text has this:
(§1) Human gastric cancer (AGS), human differentiation of advanced gastric cancer (MGC803), human colorectal cancer (HCT116), human lung cancer (A549), human hepatocellular carcinoma (Bel7402) and human cervical cancer (HeLa) cell lines were obtained from the State Key Laboratory of Natural Resources and Functional Molecules of the Changbai Mountain (Yanbian University) and maintained in Dulbecco’s modified Eagle’s medium and RPMI Media 1640 (RPMI1640), supplemented with 10% foetal bovine serum 100 IU/ml penicillin, […] and 2 mmol/l L-glutamine (Sigma) at 37 °7 in a humidified atmosphere containing 5% CO2.
(§2) All six human cancer cell lines and normal L02 cells were seeded in 96-well plates at the appropriate densities to ensure exponential growth throughout the experimental period (9 × 10^3 cells per well) and then allowed to adhere for 24 h. The cells were then treated for 48 h with four serial dilutions (100, 50, 10, and 1 µM) of each compound. 5-Fluorouracil (5-FU) was used as the positive control. After incubation for 48 h, 10 µl MTT solution was added to each well to give a final concentration of 2 mg ml^−1. The plates were then incubated for further 4 h. After incubation, the MTT solution was removed and 150 µl DMSO was added to each well to solubilise the formed product. To ensure complete solubilisation, the plates were shaken vigorously for 10 min at room temperature. The optometric density (OD) was read on a microplate reader (ELx800, BioTek, Highland Park, Winooski, VT) at a wavelength of 492 nm and the data were subsequently analysed. The percentage of cell growth inhibition was calculated from the following equation: inhibitory rate (%) = [1–(ODtreated–ODblank)/(ODcontrol–ODblank)] × 100.
(§3) The MTT assay was performed using a standard protocol.
A general note: Tetrazolium dyes change colour on reduction, which living cells bring about.

A further experiment concerns MGC803. Put plainly: MTT antiproliferative assay, MGC803 cells. To be noted: Homo sapiens, MGC-803; MTT, 48 h, means ± SD, n = 3.
Text: as §1, §2, §3

A further experiment concerns Bel7402. Put plainly: MTT antiproliferative assay, Bel7402 cells. To be noted: Homo sapiens, Bel-7402; MTT, 48 h, means ± SD, n = 3.
Text: as §1, §2, §3

The test system of a further experiment is HCT116. Put plainly: MTT antiproliferative assay, HCT116 cells. Particulars: Homo sapiens, HCT-116, 48 h, MTT, 48 h, means ± SD, n = 3.
Text: as §1, §2, §3

The next experiment deals with A549. The experiment is described as follows: MTT antiproliferative assay, A549 cells. Particulars: Homo sapiens, A549; MTT, 48 h, means ± SD, n = 3.
Text: as §1, §2, §3

The next experiment relates to Hela. The experiment is described as follows: MTT antiproliferative assay, HeLa cells. Particulars: Homo sapiens, HeLa; MTT, 48 h, means ± SD, n = 3.
Text: as §1, §2, §3

SMILES strings stand for the structures.

For `CC1(C)CCC(O)C23COC(O)(C(O)C12)C12C(=O)C(=Cc4ccccc4)C(CCC31)C2O` [Compound 2a, (1S,4aR,5S,6S,6aR,9S,11aS,14R,E)-8-benzylidene-1,5,6,14-tetrahydroxy-4,4-dimethyldecahydro-1H-6,11b-(epoxymethano)-6a,9-methanocyclohepta[a]naphthale-n-7(8H)-one], the half-maximal inhibitory concentration (IC50) (in general, the point on the concentration scale where inhibition reaches its midpoint) in the experiment with AGS was more than 100 µM; with MGC803, 9.13 ± 0.82 µM; with Bel7402, 4.97 ± 0.56 µM; in the experiment on HCT116, 47.1 ± 4.32 µM; in the experiment on A549 it was more than 100 µM; with Hela, more than 100 µM.
For `CC1(C)CCC(O)C23COC(O)(C(O)C12)C12C(=O)C(=Cc4cccc(Cl)c4)C(CCC31)C2O` [Compound 2d, (1S,4aR,5S,6S,6aR,9S,11aS,14R,E)-8-(3-chlorobenzylidene)-1,5,6,14-tetrahydrox-y-4,4-dimethyldecahydro-1H-6,11b-(epoxymethano)-6a,9-methanocyclohepta[a]-naphthalen-7(8H)-one], the IC50 in the experiment on AGS is 14.1 ± 1.65 µM; in the experiment with MGC803, 2.13 ± 0.13 µM; in the experiment on Bel7402 it was 16.9 ± 1.3 µM; with HCT116 it was 19.8 ± 3.19 µM; in the experiment on A549, 12.7 ± 1.56 µM; in the experiment on Hela it was 15.2 ± 1.47 µM.
`Cc1ccccc1/C=C1/C(=O)[C@]23[C@H](O)[C@H]1CC[C@H]2C12CO[C@]3(O)[C@@H](O)[C@@H]1C(C)(C)CC[C@@H]2O` [Compound 2f, (1S,4aR,5S,6S,6aR,9S,11aS,14R,E)-1,5,6,14-tetrahydroxy-4,4-dimethyl-8-(2-methylbenzylidene)decahydro-1H-6,11b-(epoxymethano)-6a,9-methanocyclohepta[a]-naphthalen-7(8H)-one]: the IC50 is more than 100 µM in the experiment on AGS; 22.8 ± 1.25 µM with MGC803; more than 100 µM with Bel7402; 59 ± 3.37 µM with HCT116; more than 100 µM in the experiment on A549; more than 100 µM with Hela.
Turning to `CC(C)=CCOc1cccc(/C=C2/C(=O)[C@]34[C@H](O)[C@H]2CC[C@H]3C23CO[C@]4(O)[C@@H](O)[C@@H]2C(C)(C)CC[C@@H]3O)c1` [Compound 2q, (1S,4aR,5S,6S,6aR,9S,11aS,14R,E)-1,5,6,14-tetrahydroxy-4,4-dimethyl-8-(3-((3-methylbut-2-en1yl)oxy)benzylidene)decahydro-1H-6,11b-(epoxymethano)-6a,9-methanocyclohepta[a]naphthalen-7(8H)-one], the IC50 with AGS is 3.1 ± 0.41 µM; with MGC803 it was 9.1 ± 1.72 µM; in the experiment on Bel7402 it was 8.62 ± 1.12 µM; in the experiment on HCT116 it was 7.63 ± 0.81 µM; with A549, 4.66 ± 0.3 µM; in the experiment on Hela, 5.43 ± 0.85 µM.
`CC1(C)CCC(O)C23COC(O)(C(O)C12)C12C(=O)C(=Cc4cccc(F)c4)C(CCC31)C2O` [Compound 2b, (1S,4aR,5S,6S,6aR,9S,11aS,14R,E)-8-(3-fluorobenzylidene)-1,5,6,14-tetrahydroxy-4,4-dimethyldecahydro-1H-6,11b-(epoxymethano)-6a,9-methanocyclohepta[a]n-aphthalen-7(8H)-one]: the concentration for half-maximal inhibition (IC50) is 13.9 ± 1.5 µM with AGS; 23.6 ± 1.48 µM in the experiment on MGC803; more than 100 µM with Bel7402; 36.6 ± 2.43 µM in the experiment with HCT116; 47.4 ± 3.49 µM in the experiment with A549; more than 100 µM in the experiment with Hela.
Take `COc1ccc(/C=C2/C(=O)[C@]34[C@H](O)[C@H]2CC[C@H]3C23CO[C@]4(O)[C@@H](O)[C@@H]2C(C)(C)CC[C@@H]3O)cc1` [Compound 2k, (1S,4aR,5S,6S,6aR,9S,11aS,14R,E)-1,5,6,14-tetrahydroxy-8-(4-methoxybenzylidene)-4,4-dimethyldecahydro-1H-6,11b-(epoxymethano)-6a,9-methanocyclohepta-[a]naphthalen-7(8H)-one]: the IC50 in the experiment with AGS stood at 2.91 ± 0.42 µM; in the experiment on MGC803 it was 2.79 ± 0.38 µM; in the experiment with Bel7402, 4.52 ± 0.46 µM; in the experiment on HCT116 it was 2.99 ± 0.32 µM; in the experiment with A549, 16.8 ± 2.51 µM; in the experiment on Hela, 68.8 ± 5.32 µM.
As for `Cc1ccc(/C=C2/C(=O)[C@]34[C@H](O)[C@H]2CC[C@H]3C23CO[C@]4(O)[C@@H](O)[C@@H]2C(C)(C)CC[C@@H]3O)cc1` [Compound 2h, (1S,4aR,5S,6S,6aR,9S,11aS,14R,E)-1,5,6,14-tetrahydroxy-4,4-dimethyl-8-(4-methylbenzylidene)decahydro-1H-6,11b-(epoxymethano)-6a,9-methanocyclohepta[a]naphthalen-7(8H)-one], the half-maximal inhibitory concentration (IC50) in the experiment on AGS came to 5.26 ± 1.09 µM; in the experiment on MGC803 it was 27.2 ± 2.38 µM; with Bel7402, 11.3 ± 0.98 µM; in the experiment with HCT116, 10.1 ± 1.39 µM; with A549, 18 ± 1.49 µM; in the experiment on Hela, 28.7 ± 2.13 µM.
With `COc1ccc(/C=C2/C(=O)[C@]34[C@H](O)[C@H]2CC[C@H]3C23CO[C@]4(O)[C@@H](O)[C@@H]2C(C)(C)CC[C@@H]3O)cc1OC` [Compound 2m, (1S,4aR,5S,6S,6aR,9S,11aS,14R,E)-8-(3,4-dimethoxybenzylidene)-1,5,6,14-tetrahydroxy-4,4-dimethyldecahydro-1H-6,11b-(epoxymethano)-6a,9-methanocyclohepta[a]naphthalen-7(8H)-one], the half-inhibitory concentration (IC50) came out at 17.6 ± 2.32 µM in the experiment on AGS; 17.7 ± 1.67 µM in the experiment with MGC803; 3.15 ± 0.64 µM with Bel7402; 11.1 ± 1.83 µM in the experiment with HCT116; 13.6 ± 1.89 µM in the experiment with A549; 30.7 ± 2.9 µM in the experiment on Hela.
With `Cc1cccc(/C=C2/C(=O)[C@]34[C@H](O)[C@H]2CC[C@H]3C23CO[C@]4(O)[C@@H](O)[C@@H]2C(C)(C)CC[C@@H]3O)c1` [Compound 2g, (1S,4aR,5S,6S,6aR,9S,11aS,14R,E)-1,5,6,14-tetrahydroxy-4,4-dimethyl-8-(3-methylbenzylidene)decahydro-1H-6,11b-(epoxymethano)-6a,9-methanocyclohepta[a]naphthalen-7(8H)-one], the concentration for half-maximal inhibition (IC50) in the experiment with AGS came out at 10.8 ± 2.39 µM; in the experiment with MGC803, 17.7 ± 1.13 µM; with Bel7402, 24.2 ± 2.27 µM; with HCT116 it was 14.2 ± 1.31 µM; in the experiment with A549, 66.9 ± 5.29 µM; with Hela, 22.3 ± 1.92 µM.
Regarding `CCCOc1ccc(/C=C2/C(=O)[C@]34[C@H](O)[C@H]2CC[C@H]3C23CO[C@]4(O)[C@@H](O)[C@@H]2C(C)(C)CC[C@@H]3O)cc1` [Compound 2o, (1S,4aR,5S,6S,6aR,9S,11aS,14R,E)-1,5,6,14-tetrahydroxy-4,4-dimethyl-8-(4-propoxybenzylidene)decahydro-1H-6,11b-(epoxymethano)-6a,9-methanocyclohepta-[a]naphthalen-7(8H)-one], the IC50 in the experiment with AGS worked out at 10 ± 1.88 µM; in the experiment on MGC803, 10.9 ± 1.39 µM; with Bel7402, 6.54 ± 0.94 µM; in the experiment on HCT116, 3.09 ± 0.41 µM; with A549, 15.3 ± 1.31 µM; with Hela, 8.21 ± 1.2 µM.
For the compound `CC1(C)CC[C@H](O)C23CO[C@](O)([C@@H](O)[C@H]12)[C@]12C(=O)/C(=C/c4ccc(Cl)cc4)[C@H](CC[C@@H]31)[C@H]2O` [Compound 2e, (1S,4aR,5S,6S,6aR,9S,11aS,14R,E)-8-(4-chlorobenzylidene)-1,5,6,14-tetrahydroxy-4,4-dimethyldecahydro-1H-6,11b-(epoxymethano)-6a,9-methanocyclohepta[a]-naphthalen-7(8H)-one], the half-inhibitory concentration (IC50) in the experiment with AGS is 15.3 ± 1.78 µM; in the experiment on MGC803, 7.27 ± 0.74 µM; in the experiment with Bel7402, 9.66 ± 1.15 µM; with HCT116, 14 ± 1.94 µM; in the experiment with A549, 23.1 ± 3.63 µM; in the experiment on Hela it was more than 100 µM.
As to `CC1(C)CC[C@H](O)C23CO[C@](O)([C@@H](O)[C@H]12)[C@]12C(=O)/C(=C/c4ccc(NC(=O)c5ccccc5)cc4)[C@H](CC[C@@H]31)[C@H]2O` [Compound 2u, N-(4-((E)-((1S,4aR,5S,6S,6aR,9S,11aS,14R)-1,5,6,14-tetrahydroxy-4,4-dimethyl-7-oxodecahydro-1H-6,11b-(epoxymethano)-6a,9-methanocyclohepta[a]naphthalen-8(7H)-ylidene)methyl)phenyl)benzamide], the half-maximal inhibitory concentration (IC50) amounted to 12 ± 1.99 µM in the experiment on AGS; 12.2 ± 0.94 µM with MGC803; 7.35 ± 1.28 µM in the experiment with Bel7402; 4.02 ± 0.33 µM in the experiment on HCT116; 21.5 ± 1.88 µM in the experiment on A549; 9.79 ± 1.08 µM with Hela.
As to `CC1(C)CCC(O)C23COC(O)(C(O)C12)C12C(=O)C(=Cc4ccc5ccccc5c4)C(CCC31)C2O` [Compound 2y, (1S,4aR,5S,6S,6aR,9S,11aS,14R,E)-1,5,6,14-tetrahydroxy-4,4-dimethyl-8-(napht-halen-2-ylmethylene)decahydro-1H-6,11b-(epoxymethano)-6a,9-methanocyclohepta[a]naphthalen-7(8H)-one], the IC50 in the experiment on AGS turned out to be 55 ± 4.43 µM; in the experiment on MGC803 it was 21 ± 1.24 µM; in the experiment on Bel7402 it was 51.2 ± 5.43 µM; in the experiment with HCT116, 17.5 ± 1.44 µM; with A549, 12.6 ± 1.39 µM; with Hela it was 26 ± 1.48 µM.
